Several values for one entry are separate records, joined by “and”; a condition that tells them apart may be missing. Equal values may be shown once.
Key:
[1] = Stability studies of gallium-68 complexes in media (EtOH, human serum, saline, PBS); type: physicochemical
Experimental: (§1) Gallium-68 stability studies against transmetallation (Fe, Cu, Ca, Mg), transchelation (EDTA, DTPA) as well as in HS, EtOH and saline (0.9% isotone NaCl-solution) were performed. 50 μl of the [^68Ga]Ga-DOTA.SA.FAPi labeling solution with > 95% radiochemical purity were added to 1 mL of the respective media. The measured time points for gallium-68 were 15, 30, 45, 60, 90, 120 min. HS (human male AB plasma, USA origin) was bought from Sigma Aldrich, PBS was purchased from Sigma Aldrich and 0.9% saline from B. Braun Melsungen AG (Melsungen, Germany).

[2] = test system: HT-29 xenograft mice; experiment: Micro-PET/CT imaging in HT-29 tumor-bearing mice; type: in vivo, mouse; details: PET 60 min p.i.
Experimental: (§2) In vivo tumor model: HT-29 (human colon adenocarcinoma, ATCC, Rockville, Maryland) cells were routinely cultured in Dulbecco’s Modified Eagle Medium supplemented with 10% heat inactivated foetal bovine serum (FBS), 2 mM glutamine, 1% sodium pyruvate and 1% penicillin/streptomycin (Gibco, Life technologies). After detaching the cells, the number of viable cells was counted with the automated Muse™ Cell Analyzer (Merck Millipore). For the HT-29 subcutaneous model, 10.10^6 viable cells, suspended in 100 μl PBS, were inoculated in the right hind leg of female 6-week-old CD1^−/− Foxn1nu mice (n = 3), obtained from Charles River Laboratories (L’Arbresle, France). The animals were kept under environmentally controlled conditions (12 h light/dark cycle, 20–24 °C and 40–70% relative humidity) with food and water ad libitum. When tumors reached an approximate volume of 400 mm^3, 3 mice underwent μPET imaging. All experimental procedures and protocols were performed in accordance with European Directive 86/609/EEC Welfare and Treatment of Animals and were approved by the local ethical commission (2017–070, University of Antwerp, Belgium).
Micro-PET imaging: Micro-PET scans were carried out using an Inveon small-animal PET/CT scanner (Siemens), after i.v. injection of 4 nmol of [^68Ga]-DOTA.SA.FAPi (8.6 MBq, molar activity of 2.1 GBq/ μmol) into tumor bearing mice (n = 3), under isoflurane anesthesia (5% for induction, 2% for maintenance). Static whole-body PET images were acquired 60 min after injection of the radiotracer. Following each PET acquisition, a whole-body CT scan was acquired to obtain the animal’s anatomical information individually.
For quantitative analysis, PET data were reconstructed using 3-dimensional ordered subset expectation maximization (OSEM3D, 16 subsets and 2 iterations) and 18 maximum a posteriori (MAP) iterations including scatter and attenuation correction (matrix size, 128 × 128 × 159; voxel size, 0.776 × 0.776 × 0.776 mm;). Volumes of interest (VOIs) were manually drawn on the PET/CT images using PMOD (version 3.6; PMOD Technologies) to delineate the tumor, heart and muscle.

[3] = test system: HT-29 xenograft mice; experiment: Ex vivo biodistribution in HT-29 xenograft mice; set-up: species or system mouse
Experimental: as §2
Ex vivo biodistribution: Immediately after the CT scans, the animals were sacrificed, the blood, tissues and organs were collected, weighed and the radioactivity was measured using an automatic γ-counter (Wizard^2 2480, PerkinElmer). Values were expressed as percentage of the injected dose per gram (%ID/g).

[4] = Gallium-68 stability against transmetallation (Fe, Cu, Ca, Mg) and transchelation (EDTA, DTPA); type: physicochemical
Experimental: as §1

[5] = biological target: T1, human FAP (Homo sapiens, UniProt Q12884); experiment: FAP inhibition assay (IC50, Z-Gly-Pro-AMC substrate); type: biochemical; details: for IC50: Z-Gly-Pro-AMC 50 μM, pH 8, 15 min pre-incubation at 37 °C
T1 construct: the human secretion signal was replaced with the HoneyBee mellitin secretion signal; HoneyBee mellitin secretion signal (replaces the native signal-anchor) (N); C-terminal tag of the BaculoDirect C-term kit (C); made in house; host or cells: Sf9 insect cells (baculovirus); purified from the supernatant
T1 sequence (Q12884 26-760 limits assumed): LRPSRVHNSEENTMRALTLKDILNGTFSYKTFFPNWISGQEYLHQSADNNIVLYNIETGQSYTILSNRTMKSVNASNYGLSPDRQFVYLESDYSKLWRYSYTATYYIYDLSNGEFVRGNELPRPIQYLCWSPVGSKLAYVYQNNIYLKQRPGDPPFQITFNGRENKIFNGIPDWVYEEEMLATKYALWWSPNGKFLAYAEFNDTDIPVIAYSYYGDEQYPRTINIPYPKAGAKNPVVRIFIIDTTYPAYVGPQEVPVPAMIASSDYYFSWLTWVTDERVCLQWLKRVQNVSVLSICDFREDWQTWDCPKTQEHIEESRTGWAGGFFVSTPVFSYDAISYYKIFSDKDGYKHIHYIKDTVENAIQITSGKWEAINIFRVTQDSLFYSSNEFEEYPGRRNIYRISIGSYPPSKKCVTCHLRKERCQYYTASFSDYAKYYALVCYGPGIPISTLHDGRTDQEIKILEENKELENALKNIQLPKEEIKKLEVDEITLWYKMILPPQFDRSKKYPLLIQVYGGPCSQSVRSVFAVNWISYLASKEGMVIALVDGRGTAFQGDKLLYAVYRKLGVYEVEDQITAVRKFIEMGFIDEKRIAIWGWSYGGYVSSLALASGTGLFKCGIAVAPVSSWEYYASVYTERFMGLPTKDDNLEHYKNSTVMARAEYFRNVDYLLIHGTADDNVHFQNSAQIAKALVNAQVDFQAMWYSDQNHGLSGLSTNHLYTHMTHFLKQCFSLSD
From the text: (§3) Enzymes: A gateway-entry clone for human FAP was purchased from Dharmacon (Accession number DQ891423) and the human secretion signal was replaced with the HoneyBee mellitin secretion signal. For transfection and expression of FAP in Sf9 insect cells, the C-terminal BaculoDirect kit from LifeTechnologies was used. The enzyme was purified from the supernatant of the insect cells using immobilized Ni-chelating chromatography (GE healthcare, Diegem, Belgium), followed by anion-exchange chromatography using a 1 mL HiTrap Q (GE healthcare, Diegem, Belgium). Human recombinant PREP was expressed in BL21(DE3) cells and purified using immobilized Co-chelating chromatography (GE healthcare) followed by anion-exchange chromatography on a 1 ml Mono Q column (GE healthcare).
Eight concentrations of inhibitors were tested. The final DMSO concentration was kept constant during the experiment to exclude any solvent effects. Inhibitors were pre-incubated with the enzyme for 15 min at 37 °C, afterwards the substrate was added and the velocities of AMC release were measured kinetically at λex = 380 nm, λem = 465 nm for at least 10 min at 37 °C. The Infinite 200 (Tecan Group Ltd.) micro-titer plate reader and the Magellan software were used for measurement and data processing respectively.
(§4) The data were fitted using a non-linear fit model in GraFit 7 software, according to the following equation: y=range/1+x/IC50^s where y is the value of the residual enzymatic activity compared to a non-inhibited sample, x is the final inhibitor concentration in the assay, s is the slope factor and the IC50 is the half maximal inhibitory concentration.

[6] = biological target: T2, Human recombinant PREP (Homo sapiens, UniProt P48147); experiment: PREP inhibition assay (IC50, N-succinyl-Gly-Pro-AMC substrate); type: biochemical; details: N-succinyl-Gly-Pro-AMC 250 μM, pH 7.4, 15 min pre-incubation at 37 °C
T2 sequence (P48147 1-710): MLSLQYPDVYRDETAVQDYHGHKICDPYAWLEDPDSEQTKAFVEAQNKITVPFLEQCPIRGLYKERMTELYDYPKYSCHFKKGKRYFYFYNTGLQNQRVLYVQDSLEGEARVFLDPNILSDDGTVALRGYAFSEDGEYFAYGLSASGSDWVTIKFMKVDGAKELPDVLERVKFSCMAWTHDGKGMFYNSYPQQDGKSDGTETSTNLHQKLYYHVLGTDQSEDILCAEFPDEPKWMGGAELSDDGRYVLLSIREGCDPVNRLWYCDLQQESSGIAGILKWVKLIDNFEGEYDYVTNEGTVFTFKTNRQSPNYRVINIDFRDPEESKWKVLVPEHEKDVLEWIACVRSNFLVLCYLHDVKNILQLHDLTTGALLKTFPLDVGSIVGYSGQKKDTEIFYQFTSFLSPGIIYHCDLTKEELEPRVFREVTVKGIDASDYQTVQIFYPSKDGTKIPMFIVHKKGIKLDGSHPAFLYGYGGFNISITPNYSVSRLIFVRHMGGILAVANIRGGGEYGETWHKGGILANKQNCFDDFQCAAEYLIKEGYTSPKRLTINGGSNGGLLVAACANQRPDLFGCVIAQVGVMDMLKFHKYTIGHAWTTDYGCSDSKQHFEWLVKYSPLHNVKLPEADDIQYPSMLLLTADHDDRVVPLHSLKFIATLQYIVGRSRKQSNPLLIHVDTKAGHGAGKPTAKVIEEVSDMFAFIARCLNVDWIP
From the text: as §3
Eight concentrations of inhibitors were tested. The final DMSO concentration is kept constant during the experiment to exclude any effects. Inhibitors were pre-incubated with the enzyme for 15 min at 37 °C, afterwards the substrate was added and the velocities of AMC release were measured kinetically at λex = 380 nm, λem = 465 nm for at least 10 min at 37 °C. The Infinite 200 (Tecan Group Ltd.) micro-titer plate reader and the Magellan software were used for measurement and data processing, respectively.
as §4

[7] = HT-29 xenograft mice, 1 h p.i., N=3
[8] = ex vivo biodistribution, 1 h p.i.

N#C[C@@H]1CC(F)(F)CN1C(=O)CNC(=O)c1ccnc2ccc(OCCCCNc3c(NCCNC(=O)CN4CCN(CC(=O)[O-])CCN(CC(=O)[O-])CCN(CC(=O)[O-])CC4)c(=O)c3=O)cc12.[68Ga+3] [[^68Ga]Ga-DOTA.SA.FAPi]
Stability, intact conjugate ([1]; ethanol (EtOH), over 2 h at 37 °C): over 98% | Stability, intact conjugate ([1]; human serum (HS), over 2 h): over 98% | Stability, intact conjugate ([1]; saline 0.9% (NaCl), over 2 h): over 98% | SUVmean heart [2]: 0.15 ± 0.01 and 0.15 | SUVmean kidneys [2]: 0.27 ± 0.11 and 0.27 | SUVmean liver [2]: 0.22 ± 0.08 and 0.22 | SUVmean muscle [2]: 0.18 ± 0.07 and 0.18 | SUVmean small intestine [2]: 0.37 ± 0.14 | SUVmean tumor [2]: 0.75 ± 0.09 and 0.75 | Ex vivo biodistribution, Tumor ([3]; HT-29 xenograft mice, 1 h (60 min) p.i., N=3): 5.2 %ID/g | Ex vivo biodistribution, Bladder [3, 7]: 0.96 %ID/g | Ex vivo biodistribution, Blood [3, 7]: 0.56 %ID/g | Ex vivo biodistribution, Bone [3, 7]: 3.56 %ID/g | Ex vivo biodistribution, Brain [3, 7]: 1.27 %ID/g | Ex vivo biodistribution, Fat [3, 7]: 0.38 %ID/g | Ex vivo biodistribution, Heart [3, 7]: 0.22 %ID/g | Ex vivo biodistribution, Kidneys [3, 7]: 1.77 %ID/g | Ex vivo biodistribution, Large Intestine [3, 7]: 0.21 %ID/g | Ex vivo biodistribution, Liver [3, 7]: 0.70 %ID/g | Ex vivo biodistribution, Lungs [3, 7]: 0.33 %ID/g | Ex vivo biodistribution, Muscle [3, 7]: 0.45 %ID/g | Ex vivo biodistribution, Pancreas [3, 7]: 0.51 %ID/g | Ex vivo biodistribution, Skin [3, 7]: 0.04 %ID/g | Ex vivo biodistribution, Small Intestine [3, 7]: 1.81 %ID/g | Ex vivo biodistribution, Spleen [3, 7]: 0.23 %ID/g | Ex vivo biodistribution, Stomach [3, 7]: 0.21 %ID/g | tumor-to-blood ratio [3, 8]: 9.2 ± 1.1 | tumor-to-bone ratio [3, 8]: 1.5 ± 0.2 | tumor-to-large intestine ratio [3, 8]: 24.9 ± 1.7 | tumor-to-muscle ratio [3, 8]: 11.5 ± 2.2 | tumor-to-small intestine ratio [3, 8]: 2.9 ± 0.8 | Stability against transmetallation ([4]; against Ca, after 2 h): > 95% | Stability against transmetallation ([4]; against Cu, after 2 h): > 95% | Stability against transchelation ([4]; against DTPA, after 2 h): over 98% | Stability against transchelation ([4]; against EDTA, after 2 h): over 98% | Stability against transmetallation ([4]; against Fe, after 90 min): > 95% | Stability against transmetallation ([4]; against Fe, after 2 h): over 92% | Stability against transmetallation ([4]; against Mg, after 2 h): > 95%

N#C[C@@H]1CC(F)(F)CN1C(=O)CNC(=O)c1ccnc2ccc(OCCCCNc3c(NCCNC(=O)CN4CCN(CC(=O)[O-])CCN(CC(=O)[O-])CCN(CC(=O)[O-])CC4)c(=O)c3=O)cc12.[Ga+3] [[^natGa]Ga-DOTA.SA.FAPi]
IC50 [5]: 1.4 ± 0.2 nM | IC50 [6]: 8700 ± 900 nM

CN(CC(=O)[O-])C1(CCCCC(=O)NCCNc2c(NCCCCOc3ccc4nccc(C(=O)NCC(=O)N5CC(F)(F)C[C@H]5C#N)c4c3)c(=O)c2=O)CN(CC(=O)[O-])CCN(CC(=O)[O-])C1.[Ga+3] [[^natGa]Ga-DATA^5m.SA.FAPi]
IC50 [5]: 0.7 ± 0.1 nM | Selectivity index (IC50 PREP / IC50 FAP) ([5]; ratio of the IC50 values for FAP and PREP): 6714 | IC50 [6]: 4700 ± 300 nM

CN(CC(=O)[O-])C1(CCCCC(=O)NCCNc2c(NCCCCOc3ccc4nccc(C(=O)NCC(=O)N5CC(F)(F)C[C@H]5C#N)c4c3)c(=O)c2=O)CN(CC(=O)[O-])CCN(CC(=O)[O-])C1.[68Ga+3] [[^68Ga]Ga-DATA^5m.SA.FAPi]
Stability, intact conjugate ([1]; human serum (HS), over 2 h): > 95% | Stability, intact conjugate ([1]; phosphate buffered saline (PBS), over 120 min): > 95% | Stability, intact conjugate ([1]; saline 0.9% (NaCl), over 2 h): > 95%

From paper PMC7391456, “Targeting fibroblast activation protein (FAP): next generation PET radiotracers using squaramide coupled bifunctional DOTA and DATA^5m chelators” (EJNMMI Radiopharmacy and Chemistry, 2020)
